Laboratory results taken from patent US20100183745A1, “Electrochemical Device for Biocide Treatment in Agricultural Applications” (Industrie De Nora S.P.A., priority 2007, published 2010).

System: Erwinia amylovora
Test: SEM analysis of bacterial colonies on treated pear leaves
Type: in vivo, pear trees of white William variety
Conditions: leaves apparently not affected by the disease; copious bacterial colonies prior to treatment; once a day during 10 days
Excerpt: The feed vessel was loaded with a solution at neutral pH containing 1 g/l of NaCl and 2.5 g/l of KCl, and the service vessel was loaded with a tap-water stream whose flow-rate was controlled by a downstream UV probe, calibrated so as to detect the concentration of outlet hypochlorous acid by adsorption at 292 nm adjusting the same at a value comprised between 0.10 and 0.15 g/l at sprinkling stage. The outflow of electrolysis cell to the service vessel was adjusted at a flow-rate of 20 l/h.
The device regulated in this way was used for sprinkling the leaves of 50 pear trees of white William variety affected with fire blight, a disease induced by Erwinia amylovora bacterium causing stems, leaves and flowers of the plant to turn brown in localised groups. […] Each treatment was repeated once a day, during 10 subsequent days.

**Q.** With `O.O.O.O.O.O=S(=O)([O-])[O-].[Cu+2]` [cupric sulphate] as the compound, how does the “bacterial colonies on leaves by SEM analysis after the treatment” value read?
**A.** substantial reduction of the phenomenon, still showed the signs of traces of bacterial colonies
